Consider two compounds from patent US9145397B2, “Process for the preparation of 1-(2-methyl-4-(2,3,4,5-tetrahydro-1-benzazepin-1-ylcarbonyl) benzylcarbamoyl)-L-proline-N, N-dimethylamide” (Vantia Limited, priority 2011, dated 2015).

The structures appear in SMILES notation.

Data set [1] in a line: Gravimetric Vapour Sorption Analysis (GVA). It is filed as physicochemical. As to conditions: amorphous solid prepared as in PCT/GB2001/000023. The source says:
1-(2-methyl-4-(2,3,4,5-tetrahydro-1-benzazepin-1-ylcarbonyl)benzylcarbamoyl)-L-proline-N,N-dimethylamide was first described in international patent application WO 2001/049682 (PCT/GB2001/000023). […] Moreover, scanning electron micrographs (SEM) of this amorphous form show it to consist of irregular, predominantly large (>5 μm in diameter) aggregates. These properties of the amorphous form render it less suitable for use in a manufacturing process.

The target of the next data set is T1, vasopressin V2 receptor (Rattus norvegicus, UniProt Q00788).
T1 construct: from tissue; host or cells: whole animal, in vivo (endogenous receptor)
T1 sequence (Q00788 whole entry): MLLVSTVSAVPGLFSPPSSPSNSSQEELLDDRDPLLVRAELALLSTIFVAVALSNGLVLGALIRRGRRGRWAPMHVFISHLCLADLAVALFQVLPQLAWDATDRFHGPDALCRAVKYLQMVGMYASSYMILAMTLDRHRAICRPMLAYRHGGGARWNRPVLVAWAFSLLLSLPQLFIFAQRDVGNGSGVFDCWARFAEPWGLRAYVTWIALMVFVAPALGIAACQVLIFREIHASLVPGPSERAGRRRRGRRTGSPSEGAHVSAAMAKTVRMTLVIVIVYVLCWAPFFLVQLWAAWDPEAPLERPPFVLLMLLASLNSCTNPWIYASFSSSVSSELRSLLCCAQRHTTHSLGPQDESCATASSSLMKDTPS
Description: in vivo assay described in PCT/GB2001/000023 (inhibition of urine output). Particulars: at 1 hour; dosed at 1 mg/Kg. The source says: The ability of the crystalline form of the invention to agonise the vasopressin V2 receptor may be determined using the in vivo assay described in PCT/GB2001/000023.

As for `Cc1cc(C(=O)N2CCCCc3ccccc32)ccc1CNC(=O)N1CCC[C@H]1C(=O)N(C)C` [amorphous form, 1-(2-methyl-4-(2,3,4,5-tetrahydro-1-benzazepin-1-ylcarbonyl)benzylcarbamoyl)-L-proline-N,N-dimethylamide], the “hygroscopicity by Gravimetric Vapour Sorption Analysis (GVA)” value in data set [1] was “hygroscopic”. With `Cc1cc(C(=O)N2CCCCc3ccccc32)ccc1CNC(=O)N1CCC[C@H]1C(=O)N(C)C` [1-(2-methyl-4-(2,3,4,5-tetrahydro-1-benzazepin-1-ylcarbonyl)benzylcarbamoyl)-L-proline-N,N-dimethylamide], the “inhibition of urine output” value against vasopressin V2 receptor is listed as 82%.
